“And” between values parts separate entries of the source, which are not always exact repeats. Equal values may be shown once. Inconclusive results and toxic doses are left out.

For this experiment, the system named is L1210 leukemia ip in BDF1 mice, survival T/C. Put plainly: NCI In Vivo Anticancer Drug Screen. Data for tumor model L1210 Leukemia (intraperitoneal) in B6D2F1 (BDF1) mice. Conditions: endpoint: mean survival time, higher = longer survival. In a few lines: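 Tumor cells were implanted, animals were treated, and survival was followed. The result divides the treated measurement by the vehicle-control measurement.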

Setting [1] is: dose: 400.0 mg/kg/injection, schedule: Q04DX002 (ip), vehicle: saline with Tween-80.
Setting [2] is: dose: 100.0 mg/kg/injection, schedule: Q01DX001 (ip), vehicle: Klucel (hydroxypropylcellulose) (HPC).
Where [3] appears, read: dose: 100.0 mg/kg/injection, schedule: Q01DX009 (ip), vehicle: Klucel (hydroxypropylcellulose) (HPC).
[4] abbreviates: dose: 100.0 mg/kg/injection, schedule: Q04DX003 (ip), vehicle: Klucel (hydroxypropylcellulose) (HPC).
Setting [5] is: dose: 200.0 mg/kg/injection, schedule: Q01DX001 (ip), vehicle: Klucel (hydroxypropylcellulose) (HPC).
[6] abbreviates: dose: 200.0 mg/kg/injection, schedule: Q01DX009 (ip), vehicle: Klucel (hydroxypropylcellulose) (HPC).
The mark [7] stands for this setting: dose: 200.0 mg/kg/injection, schedule: Q04DX003 (ip), vehicle: Klucel (hydroxypropylcellulose) (HPC).
[8] abbreviates: dose: 400.0 mg/kg/injection, schedule: Q01DX001 (ip), vehicle: Klucel (hydroxypropylcellulose) (HPC).
[9] abbreviates: dose: 400.0 mg/kg/injection, schedule: Q01DX009 (ip), vehicle: Klucel (hydroxypropylcellulose) (HPC).
Where [10] appears, read: dose: 400.0 mg/kg/injection, schedule: Q04DX003 (ip), vehicle: Klucel (hydroxypropylcellulose) (HPC).

Consider `CC(=O)C(C(N)=O)C(c1ccc2c(c1)OCO2)C(C(C)=O)C(=O)NCc1ccccc1` (stereo unspecified), for which the T/C was 98 % of control (dose: 25.6 mg/kg/injection, schedule: Q04DX002 (ip), vehicle: saline with Tween-80); 95 % of control (dose: 64.0 mg/kg/injection, schedule: Q04DX002 (ip), vehicle: saline with Tween-80); 87 % of control (dose: 100.0 mg/kg/injection, schedule: Q04DX003 (ip), vehicle: saline with Tween-80); 91 % of control (dose: 160.0 mg/kg/injection, schedule: Q04DX002 (ip), vehicle: saline with Tween-80); 90 % of control (dose: 200.0 mg/kg/injection, schedule: Q04DX003 (ip), vehicle: saline with Tween-80); 98 % of control under setting [1]. In addition, under “dose: 400.0 mg/kg/injection, schedule: Q04DX003 (ip), vehicle: saline with Tween-80”, the T/C is 91 % of control.

As for `Cc1[nH]c(=S)[nH]c(=O)c1CCS`, the T/C reads like this: (dose: 100.0 mg/kg/injection, schedule: Q01DX001 (ip), vehicle: saline) 98 % of control; (dose: 200.0 mg/kg/injection, schedule: Q01DX001 (ip), vehicle: saline) 93 % of control; (dose: 400.0 mg/kg/injection, schedule: Q01DX001 (ip), vehicle: saline) 95 % of control.

With `O=[N+]([O-])c1ccccc1S(=O)(=O)/C=C/c1ccccc1`, the T/C by setting is: under setting [2], 96 % of control; under setting [3], 93 % of control; under setting [4], 100 % of control; under setting [5], 109 % of control; under setting [6], 100 % of control; under setting [7], 106 % of control. Moreover, the T/C by setting is: under setting [8], 96 % of control; under setting [9], 94 % of control; under setting [10], 101 % of control.

In the case of `O=C(COc1ccccc1)NC(=S)Nc1ccc(C(=O)O)cc1`, the T/C was 97 % of control (dose: 100.0 mg/kg/injection, schedule: Q01DX001 (ip), vehicle: saline with Tween-80); 102 % of control and 89 % of control (dose: 100.0 mg/kg/injection, schedule: Q01DX009 (ip), vehicle: saline with Tween-80); 97 % of control and 104 % of control (dose: 100.0 mg/kg/injection, schedule: Q04DX002 (ip), vehicle: saline with Tween-80); 95 % of control (dose: 200.0 mg/kg/injection, schedule: Q01DX001 (ip), vehicle: saline with Tween-80); 105 % of control and 86 % of control (dose: 200.0 mg/kg/injection, schedule: Q01DX009 (ip), vehicle: saline with Tween-80); 114 % of control and 90 % of control (dose: 200.0 mg/kg/injection, schedule: Q04DX002 (ip), vehicle: saline with Tween-80). Besides, the T/C is 101 % of control (dose: 400.0 mg/kg/injection, schedule: Q01DX001 (ip), vehicle: saline with Tween-80); 97 % of control and 89 % of control (dose: 400.0 mg/kg/injection, schedule: Q01DX009 (ip), vehicle: saline with Tween-80); 107 % of control and 90 % of control under setting [1].

Regarding `O=C(O)CCCCCCCCC(=O)c1cc(O)ccc1O`, the T/C under setting [2] was 94 % of control, the T/C under setting [5] is 94 % of control and the T/C under setting [8] is 106 % of control.

On to `CCCC[S][Sn-]([CH2]CCC)([CH2]CCC)[CH2]CCC`, for which the T/C was 101 % of control (dose: 6.25 mg/kg/injection, schedule: Q04DX003 (ip), vehicle: saline with Tween-80); 109 % of control (dose: 12.5 mg/kg/injection, schedule: Q04DX003 (ip), vehicle: saline with Tween-80); 93 % of control (dose: 25.0 mg/kg/injection, schedule: Q04DX002 (ip), vehicle: saline with Tween-80); 98 % of control (dose: 25.0 mg/kg/injection, schedule: Q04DX003 (ip), vehicle: saline with Tween-80).

On to `C=CCc1cc(CN(CCOCC)Cc2cc(CC=C)cc(OC)c2O)c(O)c(OC)c1`, for which the T/C is 97 % of control (dose: 12.5 mg/kg/injection, schedule: Q04DX003 (ip), vehicle: Klucel (hydroxypropylcellulose) (HPC)); 95 % of control (dose: 25.0 mg/kg/injection, schedule: Q04DX003 (ip), vehicle: Klucel (hydroxypropylcellulose) (HPC)); 94 % of control (dose: 50.0 mg/kg/injection, schedule: Q04DX003 (ip), vehicle: Klucel (hydroxypropylcellulose) (HPC)).

With `CN(C)C(=O)Sc1cccnc1`, the T/C reads like this: (dose: 100.0 mg/kg/injection, schedule: Q01DX009 (ip), vehicle: saline) 116 % of control; (dose: 200.0 mg/kg/injection, schedule: Q01DX009 (ip), vehicle: saline) 119 % of control.

For `CC1C(=O)C2C(CCC3=CC(=O)CCC32C)C2CCC(C(C)(C)OCCO)C12C` (stereo unspecified), the T/C was 105 % of control (dose: 50.0 mg/kg/injection, schedule: Q01DX001 (sc), vehicle: steriod suspending solution); 102 % of control (dose: 100.0 mg/kg/injection, schedule: Q01DX001 (sc), vehicle: steriod suspending solution); 107 % of control (dose: 200.0 mg/kg/injection, schedule: Q01DX001 (sc), vehicle: steriod suspending solution); 96 % of control (dose: 400.0 mg/kg/injection, schedule: Q01DX001 (sc), vehicle: steriod suspending solution).

For `O=NN(CCCl)C(=O)Nc1ccc(Cn2cnc3c(=O)[nH]cnc32)cc1`, the T/C by setting is: (dose: 5.0 mg/kg/injection, schedule: Q01DX009 (ip), vehicle: other) 150 % of control; (dose: 7.0 mg/kg/injection, schedule: Q01DX009 (ip), vehicle: other) 155 % of control; (dose: 14.0 mg/kg/injection, schedule: Q01DX009 (ip), vehicle: other) 162 % of control; (dose: 18.0 mg/kg/injection, schedule: Q01DX001 (ip), vehicle: other) 161 % of control; (dose: 28.0 mg/kg/injection, schedule: Q01DX009 (ip), vehicle: other) 88 % of control; (dose: 31.0 mg/kg/injection, schedule: Q01DX001 (ip), vehicle: other) 155 % of control. The T/C (dose: 36.0 mg/kg/injection, schedule: Q01DX001 (ip), vehicle: other) was 185 % of control; the T/C (dose: 45.0 mg/kg/injection, schedule: Q01DX001 (ip), vehicle: other) is 196 % of control; the T/C (dose: 46.0 mg/kg/injection, schedule: Q01DX001 (ip), vehicle: other) was 169 % of control; the T/C (dose: 62.0 mg/kg/injection, schedule: Q01DX001 (ip), vehicle: other) is 169 % of control; the T/C (dose: 63.0 mg/kg/injection, schedule: Q01DX001 (ip), vehicle: other) is 164 % of control; the T/C (dose: 125.0 mg/kg/injection, schedule: Q01DX001 (ip), vehicle: other) was 101 % of control.

`O=C1CNc2ccc(Cl)cc2N1`: the T/C is 92 % of control (dose: 100.0 mg/kg/injection, schedule: Q04DX003 (ip), vehicle: acetone); 95 % of control (dose: 200.0 mg/kg/injection, schedule: Q04DX003 (ip), vehicle: acetone); 88 % of control (dose: 400.0 mg/kg/injection, schedule: Q04DX003 (ip), vehicle: acetone).

Regarding `COc1cc2c3c(c1)C(=O)CCN3CCC2`, the T/C is 93 % of control under setting [4] and 93 % of control under setting [7].

As to `O=C1c2nc3ccccc3nc2C(=O)N1OS(=O)(=O)c1ccccc1`, the T/C was 92 % of control under setting [3], 105 % of control under setting [6] and 100 % of control under setting [9].

With `Cc1ccc(C)c(CCl)c1`, the T/C is, setting by setting: (dose: 75.0 mg/kg/injection, schedule: Q01DX001 (ip), vehicle: saline) 101 % of control; (dose: 150.0 mg/kg/injection, schedule: Q01DX001 (ip), vehicle: saline) 95 % of control.

As for `O=[N+]([O-])c1cc(Cl)ccc1S(=O)(=O)O`, the T/C was 101 % of control under setting [4], 93 % of control under setting [7] and 98 % of control under setting [10].

On to `N=C(N)N=Nc1ccc(NN=C(N)N)cc1`, for which the T/C (dose: 3.75 mg/kg/injection, schedule: Q01DX Z (ip), vehicle: saline) is 96 % of control; the T/C (dose: 7.5 mg/kg/injection, schedule: Q01DX Z (ip), vehicle: saline) was 103 % of control; the T/C (dose: 30.0 mg/kg/injection, schedule: Q01DX Z (ip), vehicle: saline) is 118 % of control; the T/C (dose: 60.0 mg/kg/injection, schedule: Q01DX Z (ip), vehicle: saline) was 98 % of control and 87 % of control.

`C1SCSCS1`: the T/C by setting is: (dose: 100.0 mg/kg/injection, schedule: Q04DX002 (ip), vehicle: Klucel (hydroxypropylcellulose) (HPC)) 104 % of control; (dose: 200.0 mg/kg/injection, schedule: Q04DX002 (ip), vehicle: Klucel (hydroxypropylcellulose) (HPC)) 96 % of control; (dose: 400.0 mg/kg/injection, schedule: Q04DX002 (ip), vehicle: Klucel (hydroxypropylcellulose) (HPC)) 93 % of control.

These data come from PubChem BioAssay AID248 (DTP/NCI, 2004).
